Data as given in patent US8030284B2, “Treatment of eye disorders characterized by an elevated intraocular pressure by siRNAs” (Sylentis S.A.U., priority 2004, dated 2011).

Assays:
[1] = test system: normotensive New Zealand rabbit; assay: IOP reduction after topical application to the cornea; assay type: in vivo, New Zealand White rabbit; conditions: topical 40 ul to cornea, once daily for four days; control = contralateral eye with vehicle alone; mean of maximum reduction ± SEM
From the text: The New Zealand rabbit is the gold standard in experimental platforms designed to study IOP. It is easy to handle and it has a big eye, similar in size to the human organ. In addition, present equipment to measure IOP is not suited to use in animals with small eyes such as mice or rats. Finally, rabbits have an IOP (around 23 mm Hg) that can be brought down to up to 40% its value using local commercial hypotensive medication. Thus, although it is possible to generate rabbit glaucoma models (for example, surgically blocking episclerotic veins or artificially occluding the trabecular meshwork), we have used normotensive rabbits since, in our hands, the pharmacological decrease in IOP can be easily and reproducibly measured.
Normotensive New Zealand White rabbits (males, 2-3 kg) were used. The animals were kept in individual cages with free access to food and water. They were submitted to artificial 12 hours light/darkness cycles, to avoid uncontrolled circadian oscillations of IOP Animal handling and treatment were carried out in accordance with the European Communities Council Directive (86/609/EEC) and the statement of the Association for Research in Vision and Ophthalmology on the Use of Animals in Ophthalmic and Vision Research.
The drugs were typically administered by instilling a small volume (typically 40 μL) on the corneal surface. Contralateral eyes were treated with the vehicle alone and could be used as controls in each experiment […] there is a sympathy phenomenon with the other eye. Multiple experiments in the same animal should be abolished.
IOP measurements were done using a contact tonometer (TONOPEN XL, Mentor, Norwell, Mass.). The TonoPen tonometer is very convenient due to its reliability and small size. Measurements with this instrument were performed delicately applying the tonometer's sensor to the corneal surface. […] All measurements fell within this interval: the mean baseline value of intraocular pressure was 17.0±0.39 mm Hg (n=100). […] In order to avoid distress to the animal, rabbits were topically anesthetized (oxibuprocaine/tetracaine, 0.4%/1%, in a saline solution (1/4 v:v). The solution was applied (10 μl) to the cornea before each measurement of intraocular pressure was made. siRNA or saline was applied topically to the cornea in volumes of 40 μl.
The standard protocol for the siRNA application in rabbit was as follows. Doses of siRNA in saline solution (0.9% w/v) to a final volume of 40 ul, were applied to one eye each day during four consecutive days. The opposite eye was taken as a control and 40 ul of sterile saline (0.9% w/v) were instilled on it, at the same time points. The IOP was measured before each application and at 2 h, 4 h and 6 h following the instillation, during 10 days. Maximum responses were observed between second and third day. To compare the effect of siRNA with other hypotensive compounds, Xalatan (latanoprost 0.005%) and Trustop (Dorzolamide 2%) were assayed and IOP measured in the same conditions.
Those siRNAs selected by the in vitro assays were applied to the animal model, following the protocol previously described. To avoid the effect of IOP fluctuations due to circadian cycles, all the applications were performed at the same time. To determine the siRNA effect, intraocular pressures (IOPs) were measured as previously mentioned.
The data are summarized in table II where values represent the mean of the maximum percentage of IOP reduction after siRNA treatment once normalized and their standard deviations. The decrease in IOP was statistically significant for all the treated targets. […] The siRNAs used in these experiments correspond to the human targets given in FIGS. 2A-2R as follows: • AC2: rabbit sequence homologous to human SEQ. ID. 73 • AC4: rabbit sequence identical to human SEQ. ID. 5 • AC12: rabbit sequence identical to human SEQ. ID. 522 • ADRB1: rabbit sequence identical to human SEQ. ID. 105 • ADRB2: rabbit sequence homologous to human SEQ. ID. […]

AC2 = assay: siRNA interference in cell cultures, real time PCR of AC2 transcript; assay type: cell-based, rabbit; conditions: normalized to actin relative to cell control, mean ± SD
Protocol: To check the specificity of the siRNA interference different cell cultures that express the target genes were employed. The cells used for these experiments were: rabbit non-pigmented ciliary epithelium cells NPE, human ciliary epithelium cells OMDC, and human embryonic kidney cells HEK293. The cells are incubated with the corresponding siRNA duplexes, and analysis of the downregulation of expression of the target gene is carried out.
Several examples of techniques well known in the art are as follows: We can perform a single transfection of siRNA duplex using a cationic lipid, such as RNAiFect Transfection Reagent (Qiagen) and Lipofectamine 2000 Reagent (Invitrogen) and assay for silencing 24, 48 and 72 hours after transfection.
A typical transfection protocol can be performed as follows: For one well of a 6-well plate, we transfect using 100 nM as final concentration of siRNA. Following RNAiFect protocol, we seed, the day before transfection, 2-4×10^5 cells per well in 3 ml of an appropriate growth medium, containing DMEM, 10% serum, antibiotics and glutamine, and incubate cells under normal growth conditions (37° C. and 5% CO2). On the day of transfection, cells have to be at 30-50% confluence. We dilute 15 ul of 20 uM siRNA duplex (corresponding to 100 nM final concentration) in 85 ul of Buffer EC-R, to give a final volume of 100 ul, and mix by vortexing. For complex formation, we add 19 ul of RNAiFect Transfection Reagent to the diluted siRNA and mix by pipetting or vortexing. After incubating the samples for 10-15 minutes at room temperature to allow formation of transfection complexes, we add the complexes drop-wise onto the cells with 2.9 ml of fresh growth medium low in antibiotics. After swirling the plates to ensure uniform distribution of the transfection complexes, we incubate the cells under their normal growth conditions. The day after, the complexes are removed and fresh and complete growth medium is added. To monitor gene silencing, cells are collected at 24, 48 and 72 hours post-transfection. The Lipofectamine 2000 Reagent protocol is quite similar. The day before transfection, we seed 2-4×10^5 cells per well in 3 ml of an appropriate growth medium, containing DMEM, 10% serum, antibiotics and glutamine, and incubate cells under normal growth conditions (37° C. and 5% CO2). On the day of transfection, cells have to be at 30-50% confluence. We dilute 12.5 ul of 20 uM siRNA duplex (corresponding to 100 nM final concentration) in 250 ul of DMEM, to give a final volume of 262.5 ul, and mix. Also, 6 ul of Lipofectamine 2000 is diluted in 250 ul of DMEM and mixed. After a 5 minutes incubation at room temperature, the diluted oligomer and the diluted Lipofectamine are combined to allow complex formation during a 20 minutes incubation at room temperature. […]

Row | Compound | IOP reduction (% of the control) [1] | % of gene transcript level (AC2; 24 h siRNA treatment) [%] | % of gene transcript level (AC2; 48 h siRNA treatment) [%]
1 | CCN[C@H]1C[C@H](C)S(=O)(=O)c2sc(S(N)(=O)=O)cc21 [Dorzolamide, reference compound] | 16.41 ± 2.38 % of the control |  | 
2 | CC(C)OC(=O)CCC/C=C\C[C@@H]1[C@@H](CC[C@@H](O)CCc2ccccc2)[C@H](O)C[C@@H]1O [Latanoprost, latanoprost, reference compound] | 25.46 ± 5.24 % of the control |  | 
3 | AC2 siRNA2: siRNA against AC2: rabbit sequence identical to human SEQ. ID. 54 (CTTCCCTGAGGATCCTCAA; listed as DNA, chemistry not given here; listed as Homo sapiens) |  | 37.97 ± 9.78 | 61.45 ± 9.62
4 | AC2 siRNA3: siRNA against AC2: rabbit sequence identical to human SEQ. ID. 66 (CTTCACTTGGTTCACTGGA; listed as DNA, chemistry not given here; listed as Homo sapiens) |  | 35.30 ± 9.73 | 51.14 ± 16.49
5 | ADRB1: siRNA against ADRB1: rabbit sequence identical to human SEQ. ID. 105 (CGACCCCAAGTGCTGCGAC; listed as DNA, chemistry not given here; listed as Homo sapiens) | 28.04 ± 2.98 % of the control |  | 
6 | AGTR2: siRNA against AGTR2: rabbit sequence identical to human SEQ. ID. 774 (GCATCTTATATAGTTCCCC; listed as DNA, chemistry not given here; listed as Homo sapiens) | 11.22 ± 1.53 % of the control |  | 
7 | ATP1A1: siRNA against ATP1A1: rabbit sequence identical to human SEQ. ID. 1399 (CTGGAACTCTGACTCAGAA; listed as DNA, chemistry not given here; listed as Homo sapiens) | 18.13 ± 1.39 % of the control |  | 
8 | ATP1B2: siRNA against ATP1B2: rabbit sequence identical to human SEQ. ID. 1820 (GTTCCACGTGAACTACACA; listed as DNA, chemistry not given here; listed as Homo sapiens) | 16.32 ± 0.91 % of the control |  | 
